From patent publication US20220023269A1, “Methods Of Treating Diabetes In Severe Insulin-Resistant Diabetic Subjects” (Balticgruppen Bio AB, priority 2018, published 2022)

Assays:
[1] = system: diet-induced obese C57BL/6J mice; test: Combination therapy AMPK activator + SGLT2 inhibitor in DIO mice; type: in vivo; conditions: 2 weeks oral gavage, Compound 1 75 mg/kg, canagliflozin 10 mg/kg
Procedure: Male C57BL/6J mice, 8 weeks of age were purchased from Jackson, Charles River Laboratories, Inc. (Germany). All animals were housed in the Umeå University animal facility (Umeå Centre for Comparative Biology; UCCB) with a 12:12 hour light-dark cycle (lights on at 6 a.m.) and a constant temperature of 21° C. The animals were ear marked with a unique identification number, and groups of 5 mice were housed in transparent polycarbonate cages that comply with the requirements of the Code of Practice for the housing and care of animals used in scientific procedures. Wood chips were used as bedding material and environmental enrichment was provided. Animals were allowed to acclimate for 15 weeks to their new environment before the onset of the study. The animals were allowed ad libitum access to tap water throughout the accommodation and study period. During the acclimation period, the animals were allowed a standard pelleted diet (CRM (E) Rodent, Special Diets Services, Scanbur BK, Sweden). At the start of the study, the standard diet was changed to a very high fat diet (vHFD; Cat. No. D12492, Research Diets, Inc.) and this diet was kept throughout the whole study period. All of the procedures were approved by the Local Ethics Review Committee on Animal Experiments, Umeå Region.
23 Weeks old male C57BL/6J mice were fed HFD to promote diet-induced obesity (DIO) and administered once daily by oral gavage; vehicle (phosphate buffer pH 7.3, 2% w/v methyl cellulose; n=11), canagliflozin 10 mg/kg (n=14), Compound 1 at 75 mg/kg (n=14) and the combination of canagliflozin 10 mg/kg and Compound 1 at […] (n=15). After 2 weeks of treatment, fasted (6 hour) blood glucose and plasma insulin levels (determined in tail vein blood samples) were analysed. Food intake and weight were monitored throughout the study.
Blood samples were collected from the tail vein in Potassium-EDTA vials and plasma was separated by centrifugation and stored at −20° C. until assayed. Plasma insulin was determined with mouse insulin ELISA (Ultra Sensitive Mouse insulin ELISA Kit). Glucose concentrations were analysed in tail vein blood using a OneTouch® Ultra®2 Blood Glucose Meter (LifeScan, Inc).
Results shown in the figures are expressed as means±standard error of the mean (S.E.M.) for the number of animals per group. Statistical significance between the control group and the three treatment groups were analysed by Student's t-test, with P<0.05 considered statistically significant.

AMPK in HeLa cells = test: AMPK activation assay in HeLa cells (LKB1 null); type: cell-based, human; conditions: 1 μM, last 20 minutes
Procedure: All cell lines were lysed in 0.1 M Tris-HCl, pH 6.8, 2% SDS, 10 mM sodium fluoride (SIGMA #S7920), 10 mM β-glycerophosphate (SIGMA #G6376), and 1 mM sodium vanadate (SIGMA #72060) and supernatant collected after 1 minute at 14,000 rpm. Islets (human and mouse) were lysed in 0.1 M Tris-HCl, pH 6.8, 2% SDS, protease inhibitor (Roche #04 693 124 001) and phosphatase inhibitor (Roche #04 906 837 001). Right calf muscle, heart, iWAT, and interscapular BAT was crushed in a pestle using liquid nitrogen and homogenised in ice cold RIPA buffer (150 mM sodium chloride (SIGMA #S7653), 1.0% NP40 (USB), 0.5% sodium deoxycholate (SIGMA #D6750), 0.1% SDS, 50 mM Tris pH 8.0, 20 mM sodium pyrophosphate (SIGMA #71515), 10 mM sodium fluoride, 10 mM β-glycerolphosphate, 1 mM sodium vanadate and protease inhibitor cocktail (Roche #04693124001), 1 tablet/10 ml lysis buffer). The supernatant was collected after 2 min at 14,000 rpm. This procedure was repeated until all fat was eliminated and the supernatant was clear, at 4° C. Samples were analysed on 4-15% polyacrylamide gels. Values were normalised toward AMPKα, β-Actin, GAPDH or the respective non-phosphorylated counterpart.
Table 3 contains origin of cell lines, growth conditions and settings for activation of AMPK via the test material. […]

DIO mice = test: Prevention of dysglycemia and insulin resistance in DIO B6 mice (oral gavage, 8 w); type: in vivo; conditions: 100 mg/kg/day each, oral gavage
Procedure: MATSUDA index was calculated via: […] […] All cell lines were lysed in 0.1 M Tris-HCl, pH 6.8, 2% SDS, 10 mM sodium fluoride (SIGMA #S7920), 10 mM β-glycerophosphate (SIGMA #G6376), and 1 mM sodium vanadate (SIGMA #72060) and supernatant collected after 1 minute at 14,000 rpm. Islets (human and mouse) were lysed in 0.1 M Tris-HCl, pH 6.8, 2% SDS, protease inhibitor (Roche #04 693 124 001) and phosphatase inhibitor (Roche #04 906 837 001). […] The supernatant was collected after 2 min at 14,000 rpm. This procedure was repeated until all fat was eliminated and the supernatant was clear, at 4° C. Samples were analysed on 4-15% polyacrylamide gels. Values were normalised toward AMPKα, β-Actin, GAPDH or the respective non-phosphorylated counterpart. For RNA purification calf muscle, iWAT, interscapular BAT, and left lateral liver lobe was crushed in a pestle using liquid nitrogen before turning to respective RNA kit. RNA from liver was prepared using Total RNA isolation Nucleospin II Kit (Macherey-Nagel #740955.50). RNA from adipose tissue was prepared using RNeasy Lipid Tissue Mini kit (Qiagen #74804). RNA from calf muscle tissue was prepared using RNeasy Fibrous Tissue Mini kit (Qiagen #74704). First strand cDNA synthesis was done using SuperScript III (First-Strand Synthesis SuperMix for qRT-PCR, Invitrogen #11752-250) according to the manufacturer's instructions. Total RNA was prepared from isolated islets using RNeasy Micro Kit (Qiagen #74004) and first strand cDNA synthesis was done using Superscript III (Invitrogen #18080-051) according to the manufacturer's instructions. Quantification of mRNA expression levels was performed essentially as previously described (Reference 3).

muscle = conditions: in vivo; cited from earlier work
hypertensive rats = conditions: acute; cited from earlier work

Cc1ccc([C@@H]2O[C@H](CO)[C@@H](O)[C@H](O)[C@H]2O)cc1Cc1ccc(-c2ccc(F)cc2)s1 [canagliflozin]
HOMA-IR [1]: lesser reduction | fasted blood glucose ([1]; 6 hour fast): lesser reduction | fasted plasma insulin ([1]; 6 hour fast): lesser reduction

C[C@H](CCC(=O)O)C[C@H](C)C[C@H](C)C(=O)/C=C(\O)[C@H](C)C[C@H](C)C/C=C/[C@@H](C)[C@@H](O)[C@@H](C)[C@@H](O)C[C@@H]1CC[C@@](C)([C@H]2CC[C@@](C)([C@@H](C)O)O2)O1 [ionomycin, reference compound]
AMPK activation (control) (AMPK in HeLa cells): readily activated AMPK

CN(C)C(=N)N=C(N)N [Metformin, reference compound]
HFD-provoked increase in fasted glucose (DIO mice; 6 w): no significant effect | HFD-provoked increase in fasted plasma insulin (DIO mice; 6 w): no significant effect | insulin resistance (HOMA-IR) (DIO mice; vs vehicle): no significant effect

NC(=O)c1ncn([C@@H]2O[C@H](CO)[C@@H](O)[C@H]2O)c1N [AICAR, 5-aminoimidazole-4-carboxyamide-1-β-D-ribofuranoside]
microvascular perfusion in muscle (muscle): increases microvascular perfusion in muscle | blood pressure (hypertensive rats): acutely lower blood pressure
